Results as given in BindingDB's records for doi:10.1038/nsb921 (Mahidol University, 2003).

How the values were obtained:
Assay in all cases: Antimalarial Testing In Vitro (IC50) and Measurement of Inhibition Constant (Ki)
Settings in all cases: pH 7; 25 °C
[1] = target: Bifunctional dihydrofolate reductase-thymidylate synthase (Plasmodium falciparum (isolate K1 / Thailand), UniProt P13922)
Procedure: (§1) The activity of pfDHFR-TS was determined spectrophotometrically using a UV-Vis spectrophotometer.

[2] = target: Bifunctional dihydrofolate reductase-thymidylate synthase [N51I,C59R,S108N,I164L] (Plasmodium falciparum (isolate K1 / Thailand), UniProt Q8I1R6, C59R/I164L/N51I/S108N)
Procedure: as §1

[3] = target: Bifunctional dihydrofolate reductase-thymidylate synthase (Plasmodium falciparum (isolate K1 / Thailand), UniProt Q8I1R6)
Procedure: as §1

Bifunctional dihydrofolate reductase-thymidylate synthase (Plasmodium falciparum (isolate K1 / Thailand), UniProt P13922), sequence (P13922 whole entry): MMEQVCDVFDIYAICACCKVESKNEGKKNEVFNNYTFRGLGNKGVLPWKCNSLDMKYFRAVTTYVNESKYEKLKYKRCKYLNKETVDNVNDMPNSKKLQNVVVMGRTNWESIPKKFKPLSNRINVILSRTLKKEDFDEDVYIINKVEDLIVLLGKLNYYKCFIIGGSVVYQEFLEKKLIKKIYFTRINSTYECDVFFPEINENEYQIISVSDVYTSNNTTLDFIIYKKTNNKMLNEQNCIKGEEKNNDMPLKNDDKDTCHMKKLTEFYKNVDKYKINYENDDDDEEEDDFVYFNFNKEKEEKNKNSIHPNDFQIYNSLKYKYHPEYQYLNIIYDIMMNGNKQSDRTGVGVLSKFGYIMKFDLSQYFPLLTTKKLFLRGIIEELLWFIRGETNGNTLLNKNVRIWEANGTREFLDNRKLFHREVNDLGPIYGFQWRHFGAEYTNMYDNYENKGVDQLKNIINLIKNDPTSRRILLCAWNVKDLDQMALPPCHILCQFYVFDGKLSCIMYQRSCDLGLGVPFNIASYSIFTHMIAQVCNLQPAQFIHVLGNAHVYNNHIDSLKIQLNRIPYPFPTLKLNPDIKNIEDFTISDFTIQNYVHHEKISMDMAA
Bifunctional dihydrofolate reductase-thymidylate synthase (Plasmodium falciparum (isolate K1 / Thailand), UniProt Q8I1R6), sequence (Q8I1R6 whole entry): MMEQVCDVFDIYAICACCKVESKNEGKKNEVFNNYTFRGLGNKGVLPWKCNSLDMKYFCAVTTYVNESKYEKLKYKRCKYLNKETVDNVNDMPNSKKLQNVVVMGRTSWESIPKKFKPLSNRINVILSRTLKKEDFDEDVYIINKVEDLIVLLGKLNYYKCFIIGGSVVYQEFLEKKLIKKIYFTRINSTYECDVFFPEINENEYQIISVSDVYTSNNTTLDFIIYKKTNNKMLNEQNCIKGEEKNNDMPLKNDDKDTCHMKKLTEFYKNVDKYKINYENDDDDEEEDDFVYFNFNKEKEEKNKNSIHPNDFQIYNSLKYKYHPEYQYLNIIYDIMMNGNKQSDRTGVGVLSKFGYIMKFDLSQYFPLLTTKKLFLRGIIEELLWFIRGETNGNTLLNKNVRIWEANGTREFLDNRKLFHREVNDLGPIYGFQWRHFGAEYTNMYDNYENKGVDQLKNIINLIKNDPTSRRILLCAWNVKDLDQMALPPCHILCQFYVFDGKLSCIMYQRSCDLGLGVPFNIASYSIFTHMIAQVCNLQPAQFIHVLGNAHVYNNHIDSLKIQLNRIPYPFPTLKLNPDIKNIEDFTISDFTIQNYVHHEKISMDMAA
Bifunctional dihydrofolate reductase-thymidylate synthase [N51I,C59R,S108N,I164L], sequence (Q8I1R6 whole entry N51I/C59R/S108N/I164L): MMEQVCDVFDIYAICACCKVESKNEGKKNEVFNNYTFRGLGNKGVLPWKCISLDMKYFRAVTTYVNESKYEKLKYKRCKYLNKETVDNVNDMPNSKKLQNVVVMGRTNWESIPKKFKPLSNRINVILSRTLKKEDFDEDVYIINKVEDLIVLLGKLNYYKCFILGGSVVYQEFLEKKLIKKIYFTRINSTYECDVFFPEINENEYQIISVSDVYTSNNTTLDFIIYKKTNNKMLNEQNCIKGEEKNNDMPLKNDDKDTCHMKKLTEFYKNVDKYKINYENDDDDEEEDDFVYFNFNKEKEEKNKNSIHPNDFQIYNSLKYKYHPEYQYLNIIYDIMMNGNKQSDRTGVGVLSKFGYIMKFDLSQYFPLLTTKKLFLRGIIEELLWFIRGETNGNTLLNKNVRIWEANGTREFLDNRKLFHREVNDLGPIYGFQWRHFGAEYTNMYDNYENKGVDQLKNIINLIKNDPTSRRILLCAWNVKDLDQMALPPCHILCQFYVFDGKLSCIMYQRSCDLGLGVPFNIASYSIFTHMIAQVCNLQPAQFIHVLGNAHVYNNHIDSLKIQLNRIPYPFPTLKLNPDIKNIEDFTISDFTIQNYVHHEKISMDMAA

Compound | IC50 [1] [nM] | Ki [1] [nM] | IC50 [2] [nM] | Ki [2] [nM] | IC50 [3] [nM] | Ki [3] [nM]
CC1(C)N=C(N)N=C(N)N1c1ccc(Cl)cc1 | 2400 | 6.2 | > 100000 | 254 | 37 | 0.3
CC1(C)N=C(N)N=C(N)N1OCCCOc1cc(Cl)c(Cl)cc1Cl [6,6-dimethyl-1-[3-(2,4,5-trichlorophenoxy)propoxy]-1,6-dihydro-1,3,5-triazine-2,4-diamine] | 2.3 | 0.02 | 18 | 0.037 | 0.57 | 0.011
